Assay results published in ChEMBL document CHEMBL5325395, “Design, synthesis and anti-ovarian cancer activities of thieno[2,3-d]pyrimidine based chimeric BRD4 inhibitor/nitric oxide-donator” (Eur J Med Chem, 2023).
The source made the active and inactive calls. The rule behind the calls is not given here.

What was measured:
[1] = Induction of NO release in phosphate buffer at 6 hrs by Griess reagent based spectrophotometer analysis; assay type: functional
[2] = Induction of NO release in phosphate buffer at 4 hrs by Griess reagent based spectrophotometer analysis; assay type: functional
[3] = Induction of NO release in phosphate buffer at 0.5 hrs by Griess reagent based spectrophotometer analysis; assay type: functional
[4] = Induction of NO release in phosphate buffer at 2 hrs by Griess reagent based spectrophotometer analysis; assay type: functional
[5] = Induction of NO release in phosphate buffer at 3 hrs by Griess reagent based spectrophotometer analysis; assay type: functional
[6] = tested on: ES-2; assay: Antiproliferative activity against human ES2 cells assessed as reduction in cell viability incubated for 24 hrs by CCK8 assay; assay type: functional, cell-based; conditions: ES-2, 24 h
[7] = Induction of NO release in phosphate buffer at 24 hrs by Griess reagent based spectrophotometer analysis; assay type: functional
[8] = molecular target: Bromodomain-containing protein 4 (Homo sapiens, UniProt O60885); assay: Inhibition of BRD4 (unknown origin)
[9] = tested on: SK-OV-3; assay: Antiproliferative activity against human SK-OV-3 cells assessed as reduction in cell viability incubated for 24 hrs by CCK8 assay; assay type: functional, cell-based; conditions: SK-OV-3, 24 h
[10] = tested on: A2780; assay: Antiproliferative activity against human A2780 cells assessed as reduction in cell viability incubated for 24 hrs by CCK8 assay; assay type: functional, cell-based; conditions: A2780, 24 h
[11] = Induction of NO release in phosphate buffer at 1 hr by Griess reagent based spectrophotometer analysis; assay type: functional
[12] = tested on: OVCAR-3; assay: Antiproliferative activity against human OVCAR-3 cells assessed as reduction in cell viability incubated for 24 hrs by CCK8 assay; assay type: functional, cell-based; conditions: OVCAR-3, 24 h
[13] = tested on: SW626; assay: Antiproliferative activity against human SW626 cells assessed as reduction in cell viability incubated for 24 hrs by CCK8 assay; assay type: functional, cell-based; conditions: SW626, 24 h
[14] = tested on: SK-OV-3; assay: Induction of autophagy in human SK-OV-3 cells assessed as reduction in cell viability at 1 mmol/L incubated for 24 hrs by CCK8 assay; assay type: functional, cell-based
[15] = tested on: SK-OV-3; assay: Induction of autophagy in human SK-OV-3 cells assessed as reduction in cell viability at 100 nmol/L incubated for 24 hrs by CCK8 assay; assay type: functional, cell-based
[16] = tested on: Mus musculus; assay: In vivo inhibition of BRD4 in BALB/c nude mouse xenografted with human SK-OV-3 cells assessed as reduction in c-Myc expression at 30 mg/kg, ip administered for 19 days by immunohistochemical analysis; assay type: functional, organism-based; conditions: time 19.0 day

SMILES	Activity [1] [µmol/L]	Activity [2] [µmol/L]	Activity [3] [µmol/L]	Activity [4] [µmol/L]	Activity [5] [µmol/L]	IC50 [6] [µM]	Activity [7] [µmol/L]	IC50 [8] [µM]	IC50 [9] [µM]	IC50 [10] [µM]	Activity [11] [µmol/L]	IC50 [12] [µM]	IC50 [13] [µM]	Activity [14]	Activity [15]	inhibition [16]
Cc1cc(-c2nc3sc4c(c3c(=O)[nH]2)CCN(C)C4)cc(C)c1OCCCC(=O)OCc1no[n+]([O-])c1C	0.036	0.035	0.023	0.03	0.027	14.4	0.149	2.26	7.93	17.3	0.029	5.44	13.4	–	–	–
Cc1cc(-c2nc3sc4c(c3c(=O)[nH]2)CCN(C)C4)cc(C)c1OCCCCCC(=O)OCc1no[n+]([O-])c1C	0.044	0.04	0.02	0.033	0.036	4.63	0.154	1.97	12	6.97	0.03	6.89	5.79	–	–	–
Cc1cc(-c2nc3sc4c(c3c(=O)[nH]2)CCN(C)C4)cc(C)c1OCCCCCCO[N+](=O)[O-]	0.037	0.036	0.029	0.03	0.03	15.8	0.166	2.25	3.87	14.2	0.038	17.9	17	–	–	–
COc1cc(OC)c2c(=O)[nH]c(-c3cc(C)c(OCCO)c(C)c3)nc2c1 [APABETALONE]	–	–	–	–	–	8.01	–	–	7.05	123	–	16.9	8.45	–	–	–
CCOC(=O)N1CCN(/[N+]([O-])=N/Oc2ccc([N+](=O)[O-])cc2[N+](=O)[O-])CC1	–	–	–	–	–	> 20	–	–	18.5	> 20	–	> 20	> 20	–	–	–
Cn1cnc(N)c2ncnc1-2	–	–	–	–	–	–	–	–	–	–	–	–	–	Active	–	–
Cc1cc(-c2nc3sc4c(c3c(=O)[nH]2)CCN(C)C4)cc(C)c1OCCCCCC(=O)OCc1c(-c2ccccc2)no[n+]1[O-]	0.117	0.066	0.063	0.068	0.056	12.8	0.249	1.34	1.69	9.73	0.068	5.42	12.5	–	–	–
Cc1cc(-c2nc3sc4c(c3c(=O)[nH]2)CCN(C)C4)cc(C)c1OCCCC(=O)OCc1c(-c2ccccc2)no[n+]1[O-]	0.117	0.066	0.063	0.068	0.056	19	0.249	1.71	3.18	7.31	0.068	13.8	7.65	–	–	–
Cc1cc(-c2nc3sc4c(c3c(=O)[nH]2)CCN(C)C4)cc(C)c1OCC(=O)OCc1no[n+]([O-])c1C	0.042	0.037	0.028	0.025	0.033	8.86	0.169	1.21	1.62	5.39	0.04	3.73	9.85	–	–	–
CO/C1=C\C(C)=C\[C@@H](C)[C@@H](O)[C@@H](C)C/C(C)=C/C=C/[C@H](OC)[C@@H]([C@@H](C)[C@@H](O)[C@H](C)[C@@]2(O)C[C@@H](O)[C@H](C)[C@@H](C(C)C)O2)OC1=O	–	–	–	–	–	–	–	–	–	–	–	–	–	–	inactive	–
Cc1cc(-c2nc3sc4c(c3c(=O)[nH]2)CCN(C)C4)cc(C)c1O	–	–	–	–	–	–	–	–	–	–	–	–	–	–	–	Active
Cc1cc(-c2nc3sc4c(c3c(=O)[nH]2)CCN(C)C4)cc(C)c1OCCCCO[N+](=O)[O-]	0.065	0.052	0.03	0.037	0.05	16.3	0.173	1.89	16.9	16.9	0.05	15.3	16.6	–	–	–
Cc1cc(-c2nc3sc4c(c3c(=O)[nH]2)CCN(C)C4)cc(C)c1OCCCCCCOC(=O)c1no[n+]([O-])c1C	0.044	0.036	0.022	0.028	0.026	4.69	0.154	2.36	6.33	13.1	0.027	7.04	12.1	–	–	–
